This assay addresses Sterol O-acyltransferase 1 / ACAT1 (Homo sapiens) (UniProt P35610). Nature of the assay: Inhibition of human ACAT1.

SMILES strings stand for the structures.

For 19 compounds, IC50 results are on record in BindingDB's records for doi:10.1021/ml400168h (Merck Research Laboratories, 2013).

Usually IC50 stands for the concentration needed to halve the response being measured. A high value points to weaker potency in that assay.

Sequence of Sterol O-acyltransferase 1 / ACAT1 (Homo sapiens) (P35610 whole entry, looked up): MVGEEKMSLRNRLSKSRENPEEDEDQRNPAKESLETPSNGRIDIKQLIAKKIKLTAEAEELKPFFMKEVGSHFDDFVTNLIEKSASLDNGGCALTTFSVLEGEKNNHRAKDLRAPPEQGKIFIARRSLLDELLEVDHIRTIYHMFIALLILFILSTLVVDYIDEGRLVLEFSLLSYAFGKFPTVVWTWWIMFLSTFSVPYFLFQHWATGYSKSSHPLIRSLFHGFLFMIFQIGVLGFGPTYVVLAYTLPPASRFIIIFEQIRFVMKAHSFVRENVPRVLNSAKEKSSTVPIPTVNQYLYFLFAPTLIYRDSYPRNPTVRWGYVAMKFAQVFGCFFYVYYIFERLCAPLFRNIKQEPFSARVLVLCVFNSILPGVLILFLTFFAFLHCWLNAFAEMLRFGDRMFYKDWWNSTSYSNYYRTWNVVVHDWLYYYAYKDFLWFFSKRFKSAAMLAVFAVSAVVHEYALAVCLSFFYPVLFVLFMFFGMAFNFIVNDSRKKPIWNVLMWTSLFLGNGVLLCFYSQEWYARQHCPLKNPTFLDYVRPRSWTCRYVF

For `O=C(O)[C@H]1CC[C@H](Oc2ccc(-c3ccc(-c4nc5ccc(F)cc5[nH]4)cn3)cn2)CC1`, the IC50 was greater than 10 µM.

With `O=C(O)[C@H]1CC[C@@H](Oc2ccc(-c3ccc(-c4nc5ccc(F)cc5[nH]4)cn3)cn2)CC1`, the IC50 is greater than 10 µM. In the case of `O=C(O)[C@H]1CC[C@H](Oc2ccc(-c3ccc(-c4nc5ccccc5[nH]4)cn3)cn2)CC1`, half-maximal inhibition (IC50) required 6.07 µM. Consider `O=C(O)[C@H]1CC[C@@H](Oc2ccc(-c3ccc(-c4nc5ccccc5[nH]4)cn3)cn2)CC1`, for which the IC50 came to 8.08 µM. The result for `COc1ccc2[nH]c(-c3ccc(-c4ccc(O[C@H]5CC[C@H](C(=O)O)CC5)nc4)nc3)nc2n1` reads 4.9 µM; that for `COc1ccc2[nH]c(-c3ccc(-c4ccc(O[C@H]5CC[C@@H](C(=O)O)CC5)nc4)nc3)nc2n1`, 2.48 µM. In turn, `CS(=O)(=O)c1ccc2nc(-c3ccc(-c4ccc(O[C@H]5CC[C@H](C(=O)O)CC5)nc4)nc3)[nH]c2c1` returned an IC50 greater than 10 µM. The result for `CS(=O)(=O)c1ccc2nc(-c3ccc(-c4ccc(O[C@H]5CC[C@@H](C(=O)O)CC5)nc4)nc3)[nH]c2c1` reads greater than 10 µM; that for `O=C(O)[C@H]1CC[C@@H](Oc2ccc(-c3ccc(-c4nc5ccc(OC(F)(F)F)cc5[nH]4)cn3)cn2)CC1`, 0.772 µM. As for `N#Cc1ccc2nc(-c3ccc(-c4ccc(O[C@H]5CC[C@H](C(=O)O)CC5)nc4)nc3)[nH]c2c1`, the IC50 was greater than 10 µM. The result for `N#Cc1ccc2nc(-c3ccc(-c4ccc(O[C@H]5CC[C@@H](C(=O)O)CC5)nc4)nc3)[nH]c2c1` reads greater than 10 µM; that for `O=C(O)[C@H]1CC[C@H](Oc2ccc(-c3ccc(-c4nc5cc(F)c(F)cc5[nH]4)cn3)cn2)CC1`, 8.44 µM; that for `O=C(O)[C@H]1CC[C@@H](Oc2ccc(-c3ccc(-c4nc5cc(F)c(F)cc5[nH]4)cn3)cn2)CC1`, greater than 10 µM.

Compound `O=C(O)C[C@H]1CC[C@H](c2ccc(-c3ccc(-c4nc5ccc(Cl)cc5[nH]4)cn3)cc2)CC1` gave an IC50 of 0.167 µM. This counts as sub-micromolar.

Turning to `O=C(O)C[C@H]1CC[C@H](c2ccc(-c3ccc(-c4nc5ccc(C(F)(F)F)cc5[nH]4)cn3)cc2)CC1`, half-maximal inhibition (IC50) required 0.293 µM. `O=C(O)[C@H]1CC[C@H](Oc2ccc(-c3ccc(-c4nc5ccc(Cl)cc5[nH]4)cn3)cn2)CC1` showed a 50% inhibitory concentration (IC50) of 1.34 µM. For `O=C(O)[C@H]1CC[C@@H](Oc2ccc(-c3ccc(-c4nc5ccc(Cl)cc5[nH]4)cn3)cn2)CC1` the value was 3.53 µM; for `O=C(O)[C@H]1CC[C@H](Oc2ccc(-c3ccc(-c4nc5ccc(C(F)(F)F)cc5[nH]4)cn3)cn2)CC1`, 1.23 µM; for `O=C(O)[C@H]1CC[C@@H](Oc2ccc(-c3ccc(-c4nc5ccc(C(F)(F)F)cc5[nH]4)cn3)cn2)CC1`, 1.09 µM.
